Consider twelve compounds from US20250136568A1, “FUSED HETEROCYCLIC COMPOUNDS AS PI3KALPHA INHIBITORS” (Nanjing Zenshine Pharmaceuticals Co., Ltd., priority 2021, published 2025).

Read-outs that look alike come from different tables or passages of the source.

The subject of assay [1] is PI3Kα wide type cell line SK-BR-3. The experiment in a line: Cell Proliferation IC50 Assay (CellTiter-Glo), SK-BR-3. It is filed as cell-based. Particulars: Homo sapiens, read-out: IC50 (μM) SK-BR-3. The source says:
(§1) PI3Kα H1047R mutation cell line T-47D and MDA-MB-453, E545K mutation cell line MDA-MB-361 and PI3Kα wide type cell line SK-BR-3 were purchased from Cobioer Biotech (cat. no CBP60397, CBP60386, CBP60383 and CBP60413 respectively). The CellTiter-Glo Direct Cell Proliferation Assay Kit was purchased from Prornega (cat. No. G7573)
(§2) For cell proliferation assay in each cell line: • a. Prepare complete medium (R PMI 1640, DMEM or McCoys): Add FBS and appropriate additives according to the information sheet provided by the vendor. Mix gently. • b. Prepare single cell suspension and count the cell numbers and adjust cells to appropriate density. • c. Add 80 μL of cell suspension to 96-well opaque-walled clear bottom plates according to the planned plate layout and place the plates in the CO2 incubator overnight. • d. Prepare intermediate plate: 10 μl of diluted test compounds or staurosporine solution (200×) is added to a 96 deep well plate. Then 390 μl of culture medium without FBS is added to the respective wells. • e. Transfer 20 μL of the solutions from the above intermediate plate to the wells of the plate prepared containing 80 μL of the culture medium and cells. The total dilution is 200 folds. • f. The cells were then incubated at 5% CO2, 37° C. for 72 hours. • g. Equilibrate the plate and its contents to room temperature for approximately 30 minutes. • h. Add 100 μL of CellTiter-Glo reagent to the assay plate • i. Mix contents for 10 minutes on an orbital shaker to induce cell lysis. • j. Allow the plate to incubate at room temperature for 10 minutes to stabilize luminescent signal, • k. Paste the clear bottom with white back seal and record luminescence with Varioskan LUX plate reader.
(§3) Inhibition % and IC50 value were calculated by the formula described below: […]
Background: In ATP-based viability assays light output follows the ATP content of the culture.

The subject of assay [2] is PI3Kα H1047R mutation cell line T-47D. The experiment in a line: Cell Proliferation IC50 Assay (CellTiter-Glo), T-47D. It is filed as cell-based. Particulars: Homo sapiens, T47D, 72 h, read-out: IC50 (μM) T47D.
Description: as §1, §2, §3

The mark [3] stands for this setting: SK-BR-3 (PI3Kα wild type), 72 hours, CellTiter-Glo.
Setting [4] is: T47D (H1047R), 72 hours, CellTiter-Glo.

A word on the IC50: it is the concentration that inhibits the measured activity by half. With `Cc1cc(C(C)Nc2ccccc2P(=O)(O)O)c2oc(-c3ccc4nn(C)cc4c3)c(C)c(=O)c2c1` (stereo not drawn) [Example 176], the IC50 in assay [1] (SK-BR-3, 72 h) is greater than 10 µM; in assay [2], greater than 10 µM.
`Cc1cc([C@H](C)Nc2ccccc2C(=O)O)c2oc(-c3ccc(-c4cnn(C)c4)cc3)cc(=O)c2c1` (single isomer, unassigned) [Example 95B]: the IC50 in assay [1] (setting [3]) was greater than 10 µM; in assay [2] (setting [4]), 0.99 µM.
Turning to `Cc1cc(C(C)Nc2ccccc2C(=O)O)c2nc(-c3ccc4nn(C)cc4c3)cc(=O)n2c1` (stereo not drawn) [Example 108, 2-((1-(7-methyl-2-(2-methyl-2H-indazol-5-yl)-4-oxo-4H-pyrido[1,2-a]pyrimidin-9-yl)ethyl)amino)benzoic acid], the IC50 was greater than 10 µM in assay [1] (setting [3]) and 0.84 µM in assay [2] (setting [4]).
Consider `Cc1cc(C(C)Nc2ccccc2C(=O)O)c2oc(-c3ccc(N4CCOCC4)nc3)c(C)c(=O)c2c1` (stereo not drawn) [Example 81, 2-((1-(3,6-dimethyl-2-(6-morpholinopyridin-3-yl)-4-oxo-4H-chromen-8-yl)ethyl)amino)benzoic acid], for which the IC50 is greater than 10 µM in assay [1] (setting [3]) and 0.15 µM in assay [2] (setting [4]).
On the same counts, the results for `Cc1cc(C(C)Nc2ccccc2C(=O)O)c2oc(-c3ccc(-n4ccnc4)cc3)cc(=O)c2c1` (stereo not drawn) [Example 143, 2-((1-(2-(4-(1H-imidazol-1-yl)phenyl)-6-methyl-4-oxo-4H-chromen-8-yl)ethyl)amino)benzoic acid] are greater than 10 µM and 0.25 µM.
Turning to `Cc1cc([C@@H](C)Nc2ccccc2C(=O)O)c2oc(-c3ccc(OCCN(C)C)nc3)c(C)c(=O)c2c1` [Example 192, (R)-2-((1-(2-(6-(2-(dimethylamino)ethoxy)pyridin-3-yl)-3,6-dimethyl-4-oxo-4H-chromen-8-yl)ethyl)amino)benzoic acid], the IC50 is greater than 10 µM in assay [1] (setting [3]) and 0.1 µM in assay [2] (setting [4]).
On the same counts, the results for `Cc1cc(C(C)Nc2cccnc2C(=O)O)c2oc(-c3ccc4nn(C)cc4c3)cc(=O)c2c1` (stereo not drawn) [Example 114, 3-((1-(6-methyl-2-(2-methyl-21-indazol-5-yl)-4-oxo-4H-chromen-8-yl)ethyl)amino)picolinic acid] are greater than 10 µM and 0.46 µM.
As for `CNC(=O)c1ccccc1N[C@H](C)c1cc(C)cc2c(=O)c(C)c(-c3ccc(-c4cnn(C)c4)nc3)oc12` [Example 191, (R)-2-((1-(3,6-dimethyl-2-(6-(1-methyl-1H-pyrazol-4-yl)pyridin-3-yl)-4-oxo-4H-chromen-8-yl)ethyl)amino)-N-methylbenzamide], the values for the IC50 in assay [1] (setting [3]) and in assay [2] (setting [4]) were 2.02 µM and 0.27 µM, respectively.
In the case of `Cc1cc([C@@H](C)Nc2ccccc2C(=O)O)c2oc(-c3ccc(Cn4ccnc4)cc3)c(C)c(=O)c2c1` [Example 146, (R)-2-((1-(2-(4-((1H-imidazol-1-yl)methyl)phenyl)-3,6-dimethyl-4-oxo-4H-chromen-8-yl)ethyl)amino)benzoic acid], the IC50 in assay [1] (setting [3]) was greater than 10 µM; in assay [2] (setting [4]) it was 0.18 µM.
The corresponding values for `Cc1cc([C@@H](C)Nc2ccccc2C(=O)O)c2oc(-c3ccc(N4CCC[C@H](N(C)C)C4)cc3)c(C)c(=O)c2c1` [Example 168, 2-(((R)-1-(2-(4-((S)-3-(dimethylamino)piperidin-1-yl)phenyl)-3,6-dimethyl-4-oxo-41H-chromen-8-yl)ethyl)amino)benzoic acid] are greater than 10 µM and 0.092 µM.
As to `Cc1cc(C(C)Nc2cnccc2C(=O)O)c2oc(-c3ccc4nn(C)cc4c3)cc(=O)c2c1` (stereo not drawn) [Example 112, 3-((1-(6-methyl-2-(2-methyl-2H-indazol-5-yl)-4-oxo-4H-chromen-8-yl)ethyl)amino)isonicotinic acid], the IC50 in assay [1] (setting [3]) and in assay [2] (setting [4]) was greater than 10 µM in each case.
Turning to `CC(=O)N1CCN(c2ccc(-c3oc4c([C@@H](C)Nc5ccccc5C(=O)O)cc(C)cc4c(=O)c3C)cn2)CC1` [Example 153, (R)-2-((1-(2-(6-(4-acetylpiperazin-1-yl)pyridin-3-yl)-3,6-dimethyl-4-oxo-4H-chromen-8-yl)ethyl)amino)benzoic acid], the results for the IC50 in assay [1] (setting [3]) and in assay [2] (setting [4]) were greater than 10 µM and 0.29 µM, respectively.
